From US9808482B2, “Sulphated hyaluronic acids as regulator agents of the cytokine activity” (FIDIA FARMACEUTICI S.p.A., priority 2009, dated 2017)

How the values were obtained:
[1] = system: Vesicular stomatitis virus; assay type: cell-based; details: E6SM cells; samples average MW 200 KD; FIG. 11
IL-10 = experiment: Protein synthesis of IL-10 in human PBMC; assay type: cell-based; details: 0.1 or 1 mg/ml, 24 hours, FIG. 9 (HAS1, HAS3)
Experimental: For these experimentations, mononucleate cells of human peripheral blood (PBMC) were adopted, deriving from many different donors for evaluating the effect of HAS on the production of the cytokines listed above, using: • non-sulfated HA (average MW: 200 KD), • HAS1 and HAS3 (prepared as described in Examples 1-3 (average MW: 200 KD). […] At day zero 100,000 cells were seeded per well (using plates with 96 wells) in 200 μl of medium RPMI 1640, to which 10% of fetal bovine serum, HEPES 10 mM, Glutamine 2 mM, 1% Penicillin-Streptomycin 100 U/ml, had been added. The effect of all the samples was evaluated on non-treated PBMC with agents which stimulate the synthesis of cytokines, or stimulated with Lipopolysaccharide LPS (10 μg/ml) (highly pro-inflammatory) or with Phytohemagglutinin PHA (10 μg/ml) (a substance capable of stimulating the lymphocytes to divide themselves), both agents capable of stimulating the synthesis of cytokines. The cells were treated separately with the three compounds at a concentration of 0.1 mg/ml or 1 mg/ml. After 24 hours of incubation at 37° C. […] The quantification of the inflammation mediators was effected by means of the SearchLight® technology, using a Custom Human 9-Plex Array plate following the protocol indicated by the supplier in the technical card.

IL-1 receptor = target: T1, IL-1 receptor (Mus musculus, UniProt P13504); experiment: Inhibition of the binding of 125I-IL-1 to its receptor on 3T3 fibroblasts (radioligand binding); design: species or system mice; details: HAS degree 3, both medium and low MW; 3T3 cells, 1 mg/ml, 125I-IL-1 10 pM, 37° C. 2 hours; FIG. 4
T1 construct: the line of murine fibroblasts 3T3 was used, sensitive to the cytotoxic activity of IL-1, expressing its relative receptor; endogenous in cells; host or cells: 3T3 murine fibroblasts
T1 sequence (P13504 20-576): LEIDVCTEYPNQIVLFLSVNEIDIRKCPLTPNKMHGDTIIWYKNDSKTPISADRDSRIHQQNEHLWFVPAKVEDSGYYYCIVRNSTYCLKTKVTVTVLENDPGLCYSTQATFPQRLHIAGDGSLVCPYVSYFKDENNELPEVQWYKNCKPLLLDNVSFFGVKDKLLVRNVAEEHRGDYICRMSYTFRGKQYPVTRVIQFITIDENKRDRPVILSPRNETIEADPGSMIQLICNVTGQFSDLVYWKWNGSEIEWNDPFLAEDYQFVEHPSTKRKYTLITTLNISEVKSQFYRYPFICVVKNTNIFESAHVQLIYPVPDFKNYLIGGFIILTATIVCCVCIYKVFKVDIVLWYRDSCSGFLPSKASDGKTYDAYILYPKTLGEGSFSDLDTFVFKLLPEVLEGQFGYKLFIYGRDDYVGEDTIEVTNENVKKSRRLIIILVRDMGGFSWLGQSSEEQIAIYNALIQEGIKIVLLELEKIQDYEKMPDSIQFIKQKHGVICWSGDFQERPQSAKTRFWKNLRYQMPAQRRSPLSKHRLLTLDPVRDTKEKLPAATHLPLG
Experimental: The experimental procedure was effected as described in Chin J et al., J Exp Med, 1987, 165:70-86. In short, the line of murine fibroblasts 3T3 was used, sensitive to the cytotoxic activity of IL-1, expressing its relative receptor. […] At the end of the incubation, the cells were washed with phosphate buffer, then dissolved in 2.5 M of NaOH and counted in a γ-counter.

IL-6 receptor = target: T2, IL-6 receptor (Homo sapiens, UniProt P08887); experiment: Inhibition of the binding of 125I-IL-6 to its receptor on human myeloma U266 (radioligand binding); details: HAS degree 3, both medium and low MW; U266 cells, 1 mg/ml, 125I-IL-6 0.08 nM, 4° C. 16 hours; FIG. 5
T2 construct: the line of human myeloma U266 was used, sensitive to the cytotoxic activity of IL-6, expressing its relative receptor; endogenous in cells; host or cells: U266 human myeloma cells
T2 sequence (P08887 20-468): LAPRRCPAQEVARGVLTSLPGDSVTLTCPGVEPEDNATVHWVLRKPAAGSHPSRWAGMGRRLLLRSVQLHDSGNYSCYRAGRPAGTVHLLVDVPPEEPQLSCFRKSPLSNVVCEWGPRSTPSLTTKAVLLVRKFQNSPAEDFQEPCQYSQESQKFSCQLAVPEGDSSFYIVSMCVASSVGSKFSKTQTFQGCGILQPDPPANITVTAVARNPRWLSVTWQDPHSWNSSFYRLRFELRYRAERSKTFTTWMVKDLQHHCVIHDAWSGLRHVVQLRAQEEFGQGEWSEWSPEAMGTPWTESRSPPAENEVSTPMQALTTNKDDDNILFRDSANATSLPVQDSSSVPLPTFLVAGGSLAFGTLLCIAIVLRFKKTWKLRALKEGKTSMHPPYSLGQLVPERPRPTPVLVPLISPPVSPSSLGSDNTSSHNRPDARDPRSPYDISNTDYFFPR
Experimental: The experimental procedure was effected as described in Taga T. et al., J Exp Med, 1987, 166:967-981. In short, the line of human myeloma U266 was used, sensitive to the cytotoxic activity of IL-6, expressing its relative receptor. […] At the end of the incubation, the cells were washed with phosphate buffer, centrifuged at 9,000 rpm and the pellet counted in a γ-counter.

Row | Compound | antiviral activity vs VSV (inhibition of cytopathogenicity) [1] | production of IL-10 (IL-10) | inhibition of the binding of IL-1 to its receptor (IL-1 receptor) | inhibition of the binding of IL-6 to its receptor (IL-6 receptor)
1 | Nc1nc2c(ncn2COCCO)c(=O)[nH]1 [acyclovir] | inactive | – | – | –
2 | sulfated hyaluronic acid [HAS] | – | evident stimulus | 30% | up to 100%
